# Measurements as given in patent US9328118B2, “Nitrogen-containing bicyclic aromatic heterocyclic compound” (ASTELLAS PHARMA INC., priority 2012, dated 2016).
# Where a name gives a salt, the structure may show the parent alone. Read-outs that look alike come from different tables or passages of the source.
# How the values were obtained:
# [1] = biological target: human cathepsin S (Homo sapiens (Human), UniProt P25774); experiment: In vitro human cathepsin S inhibitory activity (VVR-AMC fluorescence); assay type: biochemical; conditions: human cathepsin S enzyme, substrate VVR-AMC 40 μM, pH 4.5, 37° C.; read-out: IC50 value of the human cathepsin S inhibitory activity (Data 1)
# Chain of human cathepsin S (P25774 115-331): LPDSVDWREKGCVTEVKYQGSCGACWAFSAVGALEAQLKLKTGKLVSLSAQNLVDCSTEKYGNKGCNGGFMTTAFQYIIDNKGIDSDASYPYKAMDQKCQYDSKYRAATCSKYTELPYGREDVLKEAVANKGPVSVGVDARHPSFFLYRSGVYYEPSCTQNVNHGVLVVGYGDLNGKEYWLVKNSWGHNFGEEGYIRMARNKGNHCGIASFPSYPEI
# Method: Test Example 1 Measurement of a In Vitro Human Cathepsin S Inhibitory Activity
# 5 μL of a human cathepsin S enzyme (R&D1183-CY-010) was added to a 96-well plate so as to be 20 ng/well. […] A reaction rate at the time of not adding an enzyme in which the test compound was not added and a reaction rate at the time of adding an enzyme in which the test compound was not added were set to 100% inhibition and 0% inhibition, respectively, then, an inhibition rate at each concentration was determined, and IC50 values were calculated by a linear regression method. In the Table, Ex represents Example compound No., and Data 1 represents an IC50 value (nM) of the human cathepsin S inhibitory activity.
# [2] = tested on: MHC class II expression in B220 positive B cells of mouse spleen cells; experiment: In vitro MHC class II expression inhibitory effect using mouse spleen cells (LPS-stimulated B cells, flow cytometry); assay type: cell-based, C57BL/6 mice; conditions: B-cell, read-out: IC50 value of MHC class II expression inhibition (Data 2)
# Method: Test Example 2 Evaluation of In Vitro MHC Class II Expression Inhibitory Effect Using Mouse Spleen Cells (Cell Evaluation System)
# In antigen-presenting cells, the inhibition of cathepsin S inhibits the expression of MHC class II molecules. […] For an increased expression of MI-IC class II in B cells, the inhibitory effect of the compound represented by formula (I) was examined.
# First, spleen cells collected from C57BL/6 mice were seeded in a 96-well plate so as to be a 1×10^5 cells/well, then, 5-fold dilution of 10 mM DMSO solution of the test compound was serially performed with RPMI 1640 medium (including 10% fetal bovine serum (FCS), 5×10^−5 M 2-mercaptoethanol, 50 IU/mL penicillin and 50 μg/mL streptomycin) nine times such that the final concentration becomes 0.026 nM to 10 μM, and the resultant products were added thereto (the final DMSO concentration was 0.1%). At the same time, LPS (Sigma L4005) was added to the wells such that the final concentration becomes 2 μg/mL, and culture was performed at 37° C. for 48 hours in 5% CO2. After culturing, the cells were stained at 4° C. for 20 minutes with PE-labeled streptavidin (BD BIOSCIENCE 554061) and biotin-labeled YAe antibody (EBIOSCIENCE 13-5741-85) together with FITC-labeled anti-mouse B220 antibody (BD BIOSCIENCE 553088), and an expression level (fluorescence intensity of YAe-biotin/streptavidin-PE) of MHC class II to which Ea peptide in B220 positive B cells was bonded was measured using a flow cytometry system (Guava EasyCyte Plus System, manufactured by Millipore Corporation). A value at the time of unstimulation of LPS in which the test compound was not added and a value at the time of stimulation of LPS in which the test compound was not added were set to 100% inhibition and 0% inhibition, respectively, then, an inhibition rate at each concentration was determined, and IC50 values were calculated by a linear regression method. In the Table, Ex represents Example compound No., and Data 2 represents an IC50 value (nM).
# [3] = tested on: OVA specific IgG antibody titer; experiment: Antibody production inhibitory effect in mouse OVA-induced antibody production model; assay type: in vivo, BALB/c male mice; conditions: oral 1 mg/kg daily Day 0 to Day 14, titer at Day 14
# Method: Test Example 4 Evaluation of Antibody Production Inhibitory Effect in Mouse OVA-Induced Antibody Production Model
# Evaluation of an antibody production inhibitory effect in vivo was performed.
# The BALB/c male mice were sensitized by intraperitoneal administration of 200 μL of an emulsion consisting of 100 μg of ovalbumin (OVA) (SIGMA A5503) and 100 μL of a complete Freund's adjuvant (CFA) (DIFCO 231131) (Day 0), and a week after that, the mice were sensitized by intraperitoneal administration of 200 μL of an emulsion consisting of 50 μg of OVA and 100 μL of an incomplete Freund's adjuvant (IFA) (DIFCO 263910) (Day 7). The test compound dissolved in a vehicle (30% propylene glycol solvent (propylene glycol:HCO40:Tween 80=4:2:1)/HCl (2 equivalents with respect to the test compound)/water) was orally administered (dose: 0.3 mg/kg, 1 mg/kg, or 3 mg/kg) at 10 mL/kg/day from Day 0 to Day 14, and an OVA specific IgG antibody titer in blood plasma at Day 14 was evaluated. Measurement of antibody titer was carried out using a blood plasma sample which was diluted 40,000 times by an ELISA method, and the antibody titer was represented as a ratio with respect to control blood plasma. An antibody titer of a mouse to which the vehicle was orally administered at 10 mL/kg/day from Day 0 to Day 14 was set to 0% inhibition, an antibody titer of a normal mouse to which the vehicle was orally administered at 10 mL/kg/day from Day 0 to Day 14 and which was not sensitized with OVA was set to 100% inhibition, and the inhibition rate at the time of the test compound administration was calculated.
# [4] = tested on: MHC class II expression in peripheral blood B cells; experiment: Ex vivo MHC class II expression inhibitory effect using mouse peripheral blood after oral administration; assay type: in vivo, C57BL/6 mice; conditions: oral 0.3 mg/kg, blood collected after 3 hours, LPS 15 hours
# Method: Test Example 3 Evaluation of Ex Vivo MHC Class II Expression Inhibitory Effect Using Mouse Peripheral Blood
# The expression inhibitory effect of MHC class II molecules was evaluated in an ex vivo system.
# The test compound was orally administered into C57BL/6mice, and the inhibitory effect with respect to the increased expression of MHC class II in B cells in peripheral blood after oral administration was examined. That is, 10 mL/kg of the test compound dissolved in a vehicle (30% propylene glycol solvent (propylene glycol:cured castor oil (HCO40):Tween 80=4:2:1)/HCl (2 equivalents with respect to the test compound)/water) was orally administered (dose: 0.1 mg/kg, 0.3 mg/kg, 1 mg/kg, or 3 mg/kg) to a C57BL/6mice, and the peripheral blood was collected after 3 hours. 10 μL of RPMI 1640 medium (including 5×10^−5 M of 2-mercaptoethanol, 50 IU/mL of penicillin, and 50 μg/mL of streptomycin) or 10 μL of LPS adjusted with the medium such that the final concentration becomes 100 μg/mL was added to 90 μL of the peripheral blood, and culture was performed at 37° C. for 15 hours in 5% CO2. After culturing, the cells were stained at 4° C. for 30 minutes with FITC-labeled anti-mouse I-A/I-E antibody (BD BIOSCIENCE 553623) and PE-labeled B220 antibody (BD BIOSCIENCE 553090), and hemolysis and fixation were performed at 37° C. for 10 minutes using a buffer (BD BIOSCIENCE Phosflow Lyse/Fix Buffer 558049). After washing, using a flow cytometry system (FACSCanto II, manufactured by BD BIOSCIENCE), an expression level of MHC class II on a B220 positive B cell surface was measured by using a fluorescence intensity of FITC (hereinafter, referred to as MFI) as an indicator. The difference between a MFI at the time of stimulation of LPS and a MFI at the time of unstimulation of LPS was set to a ΔMFI, a ΔMFI of a mouse in which 10 mL/kg of only vehicle was administered was set to 1, and the inhibition rate of ΔMFI by the test compound administration was calculated.
# [5] = C57BL/6 spleen cells, LPS 2 μg/mL, 48 hours, B220 positive B cells
compound,measurement,setting,value
"Cl.Cn1ccc2c(-c3ccc(OCCC4CCNCC4)c(C(F)(F)F)c3)nc(C#N)nc21 [Example 2, 7-methyl-4-{4-[2-(piperidin-4-yl)ethoxy]-3-(trifluoromethyl)phenyl}-7H-pyrrolo[2,3-d]pyrimidine-2-carbonitrile monohydrochloride]",IC50,[1],2.3 nM
same,IC50,[2]; [5],1.2 nM
same,inhibition of OVA specific IgG antibody titer in blood plasma,[3],61±10%
"CN(C)C(=O)CN1CCC(CCOc2ccc(-c3nc(C#N)nc4c3ccn4C)cc2C(F)(F)F)CC1 [Example 3, 2-(4-{2-[4-(2-cyano-7-methyl-7H-pyrrolo[2,3-d]pyrimidin-4-yl)-2-(trifluoromethyl)phenoxy]ethyl}piperidin-1-yl)-N,N-dimethylacetamide]",IC50,[1],2.6 nM
same,IC50,[2]; [5],1 nM
"CN1CCC[C@@H]1C(=O)N1CCC(CCOc2ccc(-c3nc(C#N)nc4c3ncn4C)cc2C(F)(F)F)CC1 [Example 6, 9-methyl-6-[4-{2-[1-(1-methyl-D-prolyl)piperidin-4-yl]ethoxy}-3-(trifluoromethyl)phenyl]-9H-purine-2-carbonitrile]",IC50,[1],3.4 nM
same,IC50,[2]; [5],0.69 nM
"CN1CCC[C@H]1C(=O)N1CCC(CCOc2ccc(-c3nc(C#N)nc4c3ccn4CC3CCCO3)cc2C(F)(F)F)CC1 (stereo partly drawn) [Example 15, 4-[4-{2-[1-(1-methyl-L-prolyl)piperidin-4-yl]ethoxy}-3-(trifluoromethyl)phenyl]-7-(tetrahydrofuran-2-ylmethyl)-7H-pyrrolo[2,3-d]pyrimidine-2-carbonitrile monohydrochloride]",IC50,[1],3.4 nM
same,IC50,[2]; [5],2.1 nM
"Cl.Cn1cnc2c(-c3cnc(OCCC4CCNCC4)c(C(F)(F)F)c3)nc(C#N)nc21 [Example 28, 9-methyl-6-{6-[2-(piperidin-4-yl)ethoxy]-5-(trifluoromethyl)pyridin-3-yl}-9H-purine-2-carbonitrile monohydrochloride]",inhibition rate of ΔMFI (increased expression of MHC class II in peripheral blood B cells),[4],40±1.4%
same,inhibition of OVA specific IgG antibody titer in blood plasma,[3],83±2%
CN1CCC(NC(=O)Cn2ccc3c(-c4ccc(OCCC5CCOCC5)c(C(F)(F)F)c4)nc(C#N)nc32)CC1 [Example 47],IC50,[1],2.1 nM
same,IC50,[2]; 48 h,2 nM
CN(C)C(=O)CN1CCC(CCOc2ccc(-c3nc(C#N)nc4c3ccn4CC3CCOC3)cc2C(F)(F)F)CC1 (stereo not shown) [Example 66],IC50,[2]; [5],2.1 nM
CCN1CCC(CCOc2ccc(-c3nc(C#N)nc4c3ncn4CC3CCOC3)cc2C(F)(F)F)CC1 (stereo not shown) [Example 70],IC50,[2]; [5],0.76 nM
CCN1CCC(CCOc2ncc(-c3nc(C#N)nc4c3ncn4CC3CCOC3)cc2C(F)(F)F)CC1 (stereo not shown) [Example 71],IC50,[2]; [5],1.3 nM
CN(C)C(=O)CN1CCC(CCOc2ccc(-c3nc(C#N)nc4c3ncn4C)cc2C(F)(F)F)CC1 [Example 72],IC50,[2]; [5],0.73 nM
CN1CCC[C@H]1C(=O)N1CCC(CCOc2ccc(-c3nc(C#N)nc4c3ncn4CC3CCOC3)cc2C(F)(F)F)CC1 (stereo partly shown) [Example 77],IC50,[1],2.7 nM
same,IC50,[2]; [5],1.5 nM
CN1CCC[C@H]1C(=O)N1CCC(CCOc2ncc(-c3nc(C#N)nc4c3ncn4CC3CCOC3)cc2C(F)(F)F)CC1 (stereo partly shown) [Example 79],IC50,[2]; [5],2.5 nM
CCN1CCC(CCOc2ccc(-c3nc(C#N)nc4c3ccn4CC3CCCO3)cc2C(F)(F)F)CC1 (stereo not shown) [Example 88],IC50,[2]; [5],2.3 nM
CN1CCC[C@H]1C(=O)N1CCC(COc2ccc(-c3nc(C#N)nc4c3ccn4CC3CCOC3)cc2C(F)(F)F)CC1 (stereo partly shown) [Example 105],IC50,[2]; [5],0.91 nM
CCN1CCC(COc2ccc(-c3nc(C#N)nc4c3ccn4CC3CCOC3)cc2C(F)(F)F)CC1 (stereo not shown) [Example 106],IC50,[2]; [5],3.2 nM
CCN1CCC(CCOc2ccc(-c3nc(C#N)nc4c3ccn4CCO)cc2C(F)(F)F)CC1 [Example 110],IC50,[2]; [5],0.91 nM
Cn1ccc2c(-c3cnc(OCCC4CCNCC4)c(C(F)(F)F)c3)nc(C#N)nc21 [Example 116],IC50,[2]; [5],1.8 nM
Cn1cnc2c(-c3ccc(OCCC4CCN(CC(=O)N5CCC(C#N)CC5)CC4)c(C(F)(F)F)c3)nc(C#N)nc21 [Example 120],IC50,[2]; [5],1 nM
Cn1cnc2c(-c3ccc(OCCC4CCN(CC(=O)N5CC[C@H](F)C5)CC4)c(C(F)(F)F)c3)nc(C#N)nc21 [Example 122],IC50,[2]; [5],0.87 nM
"Cn1ccc2c(-c3cnc(OCC4CCN(C(=O)C5CCN(CC(C)(C)O)CC5)CC4)c(C(F)(F)F)c3)nc(C#N)nc21 [Example 135, 4-{6-[(1-{[1-(2-hydroxy-2-methylpropyl)piperidin-4-yl]carbonyl}piperidin-4-yl)methoxy]-5-(trifluoromethyl)pyridin-3-yl}-7-methyl-7H-pyrrolo[2,3-d]pyrimidine-2-carbonitrile]",IC50,[2]; [5],0.89 nM
Cn1cnc2c(-c3cnc(OCCC4CCN(C5CCC5)CC4)c(C(F)(F)F)c3)nc(C#N)nc21 [Example 141],IC50,[2]; [5],0.65 nM
CN1CCC[C@@H]1C(=O)N1CC[C@@H](OCCOc2ncc(-c3nc(C#N)nc4c3ccn4C)cc2C(F)(F)F)C1 [Example 158],inhibition rate of ΔMFI (increased expression of MHC class II in peripheral blood B cells),[4],59±1.5%
same,IC50,[2]; [5],0.62 nM
